# ChEMBL document CHEMBL6127012, “Discovery of DS-1093a: An oral hypoxia-inducible factor prolyl hydroxylase inhibitor for the treatment of renal anemia” (Bioorg Med Chem Lett, 2024)
# Columns and labels:
# cells = conditions: Homo sapiens, Hep3B
# Description: Induction of EPO production in human Hep3B cells
# [1] = Partition coefficient, Kp of compound in rat liver to plasma; assay type: ADME, cell-free; conditions: liver and plasma
# [2] = AUC (0 to 24 hrs) in rat at 100 mg/kg, po measured on day 4; assay type: ADME, organism-based; conditions: in vivo, time 4 day
# [3] = Toxicity in rat assessed as increase in ALT level […] at 10 mg/kg, po measured on day 4 (reference value: 38 IU/L); assay type: organism-based; conditions: in vivo, 96 h, time 4 day
# [4] = Toxicity in rat assessed as increase in ALT level […] at 100 mg/kg, po measured on day 4 (reference value: 38 IU/L); assay type: organism-based; conditions: in vivo, 96 h, time 4 day
# [5] = Toxicity in rat assessed as increase in AST level […] at 100 mg/kg, po measured on day 4 (reference value: 71 IU/L); assay type: organism-based; conditions: in vivo, 96 h, time 4 day
# [6] = AUC (0 to 24 hrs) in rat at 10 mg/kg, po measured on day 4; assay type: ADME, organism-based; conditions: in vivo, time 4 day
# Cynomolgus monkey = experiment: Anti-leukemia activity in cynomolgus monkey assessed as dose required to cause 10 fold increase in plasma EPO level
# [7] = Toxicity in rat assessed as increase in AST level […] at 10 mg/kg, po measured on day 4 (reference value: 71 IU/L); assay type: organism-based; conditions: in vivo, 96 h, time 4 day
# [8] = AUC (0 to 24 hrs) in rat at 10 mg/kg, po measured for 14 days; assay type: ADME, organism-based; conditions: in vivo, time 14 day
# [9] = Toxicity in rat assessed as NOAEL at 10 mg/kg, po measured for 14 days; assay type: organism-based; conditions: in vivo, 336 h, time 14 day
# [10] = Cmax in rat at 3 mg/kg, po measured on day 4; assay type: ADME, organism-based; conditions: in vivo, time 4 day
# [11] = Lipophilicity, logD of the compound; assay type: physicochemical; conditions: octanol/water
# [12] = Plasma protein binding in rat assessed as free fraction; assay type: ADME, cell-free
# [13] = AUC (0 to 24 hrs) in rat at 0.54 mg/kg, po measured for 14 days; assay type: ADME, organism-based; conditions: in vivo, time 14 day
# Rattus norvegicus = experiment: Hematopoietic effect on adenine-induced renal anemia po dosed rat model assessed as increase in hemoglobin level administered for 4 days and measured on day 5,7,9,11 and 14; assay type: functional, organism-based; conditions: dose 0.3-3 mg/kg, time 4.0 day
# [14] = AUC in rat at 3 mg/kg, po measured on day 4; assay type: ADME, organism-based; conditions: in vivo, time 4 day
# [15] = Metabolic stability in rat plasma assessed as parent compound remaining; assay type: ADME, cell-free
# [16] = Half life in rat at 3 mg/kg, po measured on day 4; assay type: ADME, organism-based; conditions: in vivo, time 4 day
# Egl nine homolog 1 = Egl nine homolog 1 (Homo sapiens, UniProt Q9GZT9)
# Chain of Egl nine homolog 1 (Q9GZT9 whole entry): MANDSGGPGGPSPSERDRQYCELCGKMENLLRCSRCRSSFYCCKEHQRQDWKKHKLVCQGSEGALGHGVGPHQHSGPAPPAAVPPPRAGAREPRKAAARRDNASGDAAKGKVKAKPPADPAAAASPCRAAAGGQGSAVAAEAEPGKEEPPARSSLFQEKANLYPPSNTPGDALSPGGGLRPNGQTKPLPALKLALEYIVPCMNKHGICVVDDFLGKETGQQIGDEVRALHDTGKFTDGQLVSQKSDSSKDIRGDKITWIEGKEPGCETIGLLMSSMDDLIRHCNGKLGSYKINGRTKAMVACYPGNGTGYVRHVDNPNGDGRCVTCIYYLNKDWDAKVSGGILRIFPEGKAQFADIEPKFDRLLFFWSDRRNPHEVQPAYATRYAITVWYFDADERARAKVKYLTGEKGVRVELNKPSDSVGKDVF
# Description: Inhibition of HIF-PHD2 (unknown origin)
structure (smiles),measurement,setting,value
Cc1nc(CC2CCN(c3ccc(-c4ccc(CO)cc4)cc3)CC2)nc(C(=O)NCC(=O)O)c1O,EC50,cells,0.47 µM
Cc1nc(CC2CCN(c3cccc(C(C)(C)C)c3)CC2)nc(C(=O)NCC(=O)O)c1O,EC50,cells,6.3 µM
Cc1nc(Cc2ccc(-c3ccc(C(C)(C)C)cc3)nc2)nc(C(=O)NCC(=O)O)c1O,EC50,cells,1 µM
Cc1nc(CCCC2CCN(c3ccc(C(C)(C)C)cc3)CC2)nc(C(=O)NCC(=O)O)c1O,EC50,cells,11 µM
Cc1nc(Cc2cnc(-c3ccc(C(C)(C)C)cc3)s2)nc(C(=O)NCC(=O)O)c1O,EC50,cells,3.1 µM
Cc1nc(CC2CCN(c3ccc(Cc4ccc(C(=O)N(C)C)cc4)cc3)CC2)nc(C(=O)NCC(=O)O)c1O,EC50,cells,5.8 µM
Cc1nc(CC2CCN(c3ccc(-c4ccc(CC(C)O)cc4)cc3)CC2)nc(C(=O)NCC(=O)O)c1O (racemic),EC50,cells,0.55 µM
same,Kp,[1],1.5
Cc1nc(CC2CCN(c3ccc(C(C)(C)C)cc3)C2)nc(C(=O)NCC(=O)O)c1O (stereo not given),EC50,cells,27 µM
Cc1nc(CC2CCN(c3cccc(Cc4ccccc4)c3)CC2)nc(C(=O)NCC(=O)O)c1O,EC50,cells,3.9 µM
Cc1nc(CC2CCN(c3ccc(F)cc3)CC2)nc(C(=O)NCC(=O)O)c1O,EC50,cells,9.9 µM
Cc1nc(Cc2cnc(-c3ccc(C(C)(C)C)cc3)nc2)nc(C(=O)NCC(=O)O)c1O,EC50,cells,1.9 µM
Cc1nc(CCCCC2CCN(c3ccc(C(C)(C)C)cc3)CC2)nc(C(=O)NCC(=O)O)c1O,EC50,cells,11 µM
Cc1nc(CC2CCN(c3ccc(-c4ccc(C[C@@H](C)O)cc4)cc3)CC2)nc(C(=O)NCC(=O)O)c1O,EC50,cells,0.44 µM
same,AUC at 96 h,[2],197 µg·h/mL
same,Activity,[3],40 IU/L
same,Activity,[4],54 IU/L
same,Activity,[5],103 IU/L
same,AUC at 96 h,[6],15500 ng·h/mL
same,EC10,Cynomolgus monkey,2.4 mg/kg
same,Activity,[7],77 IU/L
Cc1nc(CCC2CCN(c3ccc(C(C)(C)C)cc3)CC2)nc(C(=O)NCC(=O)O)c1O,EC50,cells,13 µM
Cc1nc(CC2CCN(c3ccc(C(F)(F)F)cc3)CC2)nc(C(=O)NCC(=O)O)c1O,EC50,cells,5.5 µM
Cc1nc(Cc2ccc(-c3ccccc3)cc2)nc(C(=O)NCC(=O)O)c1O,EC50,cells,8.4 µM
same,EC10,Cynomolgus monkey,2.2 mg/kg
CCCc1ccc(N2CCC(Cc3nc(C)c(O)c(C(=O)NCC(=O)O)n3)CC2)cc1,EC50,cells,1.6 µM
Cc1ccc(N2CCC(Cc3nc(C)c(O)c(C(=O)NCC(=O)O)n3)CC2)cc1,EC50,cells,10 µM
CC(C)(C)c1ccc(N2CCC(Cc3nc(C(=O)NCC(=O)O)c(O)c(C(F)F)n3)CC2)cc1,EC50,cells,19 µM
Cc1nc(CC2CCCN(c3ccc(C(C)(C)C)cc3)CC2)nc(C(=O)NCC(=O)O)c1O (stereo not given),EC50,cells,19 µM
Cc1nc(CC2CCN(c3ccc(-c4ccc(C(C)(C)CO)cc4)cc3)CC2)nc(C(=O)NCC(=O)O)c1O,EC50,cells,0.84 µM
Cc1nc(CC2CCN(c3ccc(-c4ccc(C[C@H](C)O)cc4)cc3)CC2)nc(C(=O)NCC(=O)O)c1O,AUC at 336 h,[8],88500 ng·h/mL
same,Activity,[9],Non-Toxic
same,Cmax,[10],860 ng/mL
same,logD,[11],1.2
same,Fu,[12],0.73%
same,EC50,cells,0.49 µM
same,AUC at 336 h,[13],600 ng·h/mL
same,AUC at 96 h,[2],162 µg·h/mL
same,Activity,Rattus norvegicus,Dose-Dependent Effect
same,AUC at 96 h,[14],4320 ng·h/mL
same,Activity,[3],40 IU/L
same,Activity,[4],52 IU/L
same,Activity,[5],97 IU/L
same,AUC at 96 h,[6],16200 ng·h/mL
same,Stability,[15],79%
same,half-life,[16],60 min
same,EC10,Cynomolgus monkey,3.5 mg/kg
same,Activity,[7],79 IU/L
Cc1nc(Cc2ccc(-c3ccccc3)cc2)nc(C(=O)N[C@@H](C)C(=O)O)c1O,EC50,cells,14 µM
Cc1nc(Cc2ccc(-c3ccccc3)cc2)nc(C(=O)NCC(=O)O)c1C,IC50,Egl nine homolog 1,> 100 µM
CCc1nc(Cc2ccc(-c3ccccc3)cc2)nc(C(=O)NCC(=O)O)c1O,EC50,cells,16 µM
Cc1nc(CC2CCN(c3ccc(Cc4ccc(CO)cc4)cc3)CC2)nc(C(=O)NCC(=O)O)c1O,EC50,cells,2.7 µM
Cc1nc(CC2CCN(c3ccc(C(C)(C)C)cc3)CC2)nc(C(=O)NCC(=O)O)c1O,EC50,cells,1.5 µM
CCCCc1ccc(N2CCC(Cc3nc(C)c(O)c(C(=O)NCC(=O)O)n3)CC2)cc1,EC50,cells,1.6 µM
Cc1nc(CC2CCN(c3ccc(-c4ccccc4)cc3)CC2)nc(C(=O)NCC(=O)O)c1O,EC50,cells,0.42 µM
same,EC10,Cynomolgus monkey,1.1 mg/kg
Cc1nc(Cc2ccc(-c3ccc(C(C)(C)C)cc3)cn2)nc(C(=O)NCC(=O)O)c1O,EC50,cells,1.9 µM
Cc1nc(CC2CCN(c3ccc(-c4ccc(C(=O)N(C)C)cc4)cc3)CC2)nc(C(=O)NCC(=O)O)c1O,EC50,cells,0.84 µM
CSc1nc(CC2CCN(c3ccc(C(C)(C)C)cc3)CC2)nc(C(=O)NCC(=O)O)c1O,EC50,cells,3 µM
Cc1nc(CC2CCN(c3ccc(Cc4ccc(C(C)(C)CO)cc4)cc3)CC2)nc(C(=O)NCC(=O)O)c1O,EC50,cells,3.2 µM
Cc1nc(CC2CCN(c3ccc(Cc4ccccc4)cc3)CC2)nc(C(=O)NCC(=O)O)c1O,EC50,cells,0.99 µM
same,EC10,Cynomolgus monkey,0.5 mg/kg
same,Kp,[1],9.6
Cc1nc(CC2CCN(c3ccc(Cc4ccc(CC(C)O)cc4)cc3)CC2)nc(C(=O)NCC(=O)O)c1O (stereo not given),EC50,cells,2.1 µM
Cc1nc(CC2CCN(c3ccc(Cl)cc3)CC2)nc(C(=O)NCC(=O)O)c1O,EC50,cells,6.9 µM
